Experimental data as given in patent US20060069132A1, “Azolecarboxamide herbicides” (priority 2004, published 2006).

Legend:
[1] = test system: barnyardgrass; assay: Test B pre-/postemergence herbicide test; type: in vivo, Echinochloa crus-galli; details: for Barnyardgrass plant response rating: postemergence, scale 0 (no effect) to 100 (complete control)
Summary of the method: (§1)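 Evaluation is visual, comparing treated with control plants on a scale where 0 means no effect and 100 means full control. Treatments were preemergence, or postemergence on seedlings 2–18 cm tall, and held 13–15 days in the greenhouse.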

[2] = test system: Surinam grass; assay: Test B pre-/postemergence herbicide test; type: in vivo, Urochloa decumbens; details: for Surinam Grass plant response rating: postemergence
Summary of the method: (§2)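 Herbicidal effect was judged by eye on a 0–100 scale after plants stood 13 to 15 days in the greenhouse following pre- or postemergence treatment with surfactant-containing formulations.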

[3] = test system: cocklebur; assay: Test B pre-/postemergence herbicide test; type: in vivo, Xanthium strumarium; details: for Cocklebur plant response rating: postemergence, scale 0 (no effect) to 100 (complete control)
Summary of the method: as §1

[4] = test system: corn; assay: Test B pre-/postemergence herbicide test; type: in vivo, Zea mays; details: for Corn plant response rating: postemergence
Summary of the method: as §2

[5] = test system: large crabgrass; assay: Test B pre-/postemergence herbicide test; type: in vivo, Digitaria sanguinalis; details: for Crabgrass, Large plant response rating: postemergence
Summary of the method: as §2

[6] = test system: giant foxtail; assay: Test B pre-/postemergence herbicide test; type: in vivo, Setaria faberi; details: for Foxtail, Giant plant response rating: postemergence
Summary of the method: as §2

[7] = test system: lambsquarters; assay: Test B pre-/postemergence herbicide test; type: in vivo, Chenopodium album; details: for Lambsquarters plant response rating: postemergence
Summary of the method: as §2

[8] = test system: morningglory; assay: Test B pre-/postemergence herbicide test; type: in vivo, Ipomoea coccinea; details: for Morningglory plant response rating: postemergence
Summary of the method: as §1

[9] = test system: pigweed; assay: Test B pre-/postemergence herbicide test; type: in vivo, Amaranthus retroflexus; details: for Pigweed plant response rating: postemergence
Summary of the method: as §2

[10] = test system: rice; assay: Test B pre-/postemergence herbicide test; type: in vivo, Oryza sativa; details: 0 = no effect, 100 = complete control, preemergence
Summary of the method: as §2

[11] = test system: velvetleaf; assay: Test B pre-/postemergence herbicide test; type: in vivo, Abutilon theophrasti; details: for Velvetleaf plant response rating: postemergence
Summary of the method: as §2

[12] = test system: blackgrass; assay: Test B postemergence herbicide test; type: in vivo, Alopecurus myosuroides; details: postemergence, visual rating, scale 0 (no effect) to 100 (complete control)
Summary of the method: (§3)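 Each value is a visual 0–100 response rating taken against controls 13 to 15 days after treatment in the greenhouse. Plants received formulated chemical postemergence at the 1- to 4-leaf stage or, in flooded paddy, at the 2-leaf stage.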

[13] = test system: wheat; assay: Test B postemergence herbicide test; type: in vivo, Triticum aestivum; parameters: key to Wheat plant response rating: 0 = no effect, 100 = complete control; details: postemergence
Summary of the method: (§4)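 Postemergence plants were sprayed with formulated test chemicals at 2 to 18 cm height (1- to 4-leaf stage); paddy species were grown to the 2-leaf stage. After 13 to 15 days in a greenhouse, injury was rated visually against untreated controls on a 0–100 scale (0 = no effect, 100 = complete control).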

[14] = test system: wild oat; assay: Test B postemergence herbicide test; type: in vivo, Avena fatua; details: postemergence
Summary of the method: as §4

[15] = test system: rice; assay: Test B flooded paddy test; type: in vivo, Oryza sativa; details: 1000 g ai/ha, scale 0 to 100 (0 no effect, 100 complete control)
Summary of the method: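 Treated at 2-leaf (paddy) or 1–4-leaf, 2–18 cm (postemergence); greenhouse 13–15 d; visual score vs control, 0 none to 100 complete control; dash = not tested.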

[16] = test system: small flower umbrella sedge; assay: Test B flooded paddy test; type: in vivo, Cyperus difformis; details: 1000 g ai/ha, scale 0 to 100 (0 no effect, 100 complete control)
Summary of the method: as §3

[17] = test system: ducksalad; assay: Test B flooded paddy test; type: in vivo, Heteranthera limosa; details: 1000 g ai/ha, scale 0 to 100 (0 no effect, 100 complete control)
Summary of the method: as §3

[18] = test system: barnyardgrass; assay: Test B flooded paddy test; type: in vivo, Echinochloa crus-galli; details: 1000 g ai/ha, scale 0 to 100 (0 no effect, 100 complete control)
Summary of the method: as §3

[19] = 125 g ai/ha, 0 = no effect, 100 = complete control, preemergence
[20] = 500 g ai/ha, visual rating, 0 = no effect, 100 = complete control, preemergence
[21] = 125 g ai/ha, visual rating, scale 0 (no effect) to 100 (complete control)
[22] = 500 g ai/ha, scale 0 to 100, 0 is no effect, 100 is complete control

`CCCOC(=O)c1cc(NC(=O)c2cc(C(C)(C)C)nn2CC)c(F)cc1F` [Compound 249] was tested, and the “Barnyardgrass plant response rating (0 to 100 scale)” value [1, 19] was 0, the “Plant response rating, Barnyardgrass” value [1, 20] was 0 and the “Barnyardgrass plant response rating” value ([1]; 125 g ai/ha, visual rating) was 10. The “Barnyardgrass plant response rating” value ([1]; 500 g ai/ha, visual rating) was 20, the “Surinam Grass plant response rating (0 to 100 scale)” value [2, 19] was 0 and the “Plant response rating, Surinam Grass” value [2, 20] was 20. The “Surinam Grass plant response rating” value [2, 21] was 10, the “Surinam Grass plant response rating” value [2, 22] was 30 and the “Cocklebur plant response rating (0 to 100 scale)” value [3, 19] was 0. For the same compound, the “Plant response rating, Cocklebur” value [3, 20] was 0, the “Cocklebur plant response rating” value ([3]; 125 g ai/ha, visual rating) was 30 and the “Cocklebur plant response rating” value ([3]; 500 g ai/ha, visual rating) was 30. The “Corn plant response rating (0 to 100 scale)” value [4, 19] was 0, the “Plant response rating, Corn” value [4, 20] was 0 and the “Corn plant response rating” value [4, 21] was 10. The “Corn plant response rating” value [4, 22] was 20, the “Crabgrass, Large plant response rating (0 to 100 scale)” value [5, 19] was 0 and the “Plant response rating, Crabgrass, Large” value [5, 20] was 0. The “Crabgrass, Large plant response rating” value [5, 21] was 10, the “Crabgrass, Large plant response rating” value [5, 22] was 30 and the “Foxtail, Giant plant response rating (0 to 100 scale)” value [6, 19] was 0. The “Plant response rating, Foxtail, Giant” value [6, 20] was 0, the “Foxtail, Giant plant response rating” value [6, 21] was 20 and the “Foxtail, Giant plant response rating” value [6, 22] was 30. For the same compound, the “Lambsquarters plant response rating (0 to 100 scale)” value [7, 19] was 0, the “Lambsquarters plant response rating” value [7, 21] was 10 and the “Lambsquarters plant response rating” value [7, 22] was 20. For the same compound, the “Morningglory plant response rating (0 to 100 scale)” value [8, 19] was 0, the “Plant response rating, Morningglory” value [8, 20] was 10 and the “Morningglory plant response rating” value [8, 21] was 20. The “Morningglory plant response rating” value [8, 22] was 30, the “Pigweed plant response rating (0 to 100 scale)” value [9, 19] was 0 and the “Plant response rating, Pigweed” value [9, 20] was 0. The “Pigweed plant response rating” value [9, 21] was 20, the “Pigweed plant response rating” value [9, 22] was 80 and the “Rice plant response rating (0 to 100 scale)” value ([10]; 125 g ai/ha) was 0. The “Plant response rating, Rice” value ([10]; 500 g ai/ha, visual rating) was 0, the “Velvetleaf plant response rating (0 to 100 scale)” value [11, 19] was 0 and the “Plant response rating, Velvetleaf” value [11, 20] was 0. The “Velvetleaf plant response rating” value [11, 21] was 10, the “Velvetleaf plant response rating” value [11, 22] was 20 and the “Blackgrass plant response rating” value ([12]; 125 g ai/ha) was 20. For the same compound, the “Blackgrass plant response rating” value ([12]; 500 g ai/ha) was 30, the “Wheat plant response rating” value [13, 21] was 30 and the “Wheat plant response rating” value [13, 22] was 30. For the same compound, the “Oat, Wild plant response rating” value [14, 21] was 30, the “Oat, Wild plant response rating” value [14, 22] was 40 and the “Rice plant response rating” value [15] was 0. The “Sedge, Umbrella plant response rating” value [16] was 30, the “Ducksalad plant response rating” value [17] was 0 and the “Barnyardgrass plant response rating” value [18] was 0.
